# Patent publication US12036223B2, “Small molecule trail gene induction by normal and tumor cells as an anticancer therapy” (The Penn State Research Foundation, priority 2011, dated 2024)
# Like-named read-outs stand apart in the source and are kept apart here.
# Columns and labels:
# [1] = Body weight and liver histology of treated mice; conditions: TIC10 100 mg/kg i.p. single dose; 25 mg/kg oral weekly for 4 weeks
# Protocol: Tissue analyses. Mice were humanely sacrificed at indicated time points and excised normal tissue or tumors were fixed in 4% paraformaldehyde/PBS overnight at 4° C. If plasma samples were desired, 500 μL of blood was collected by terminal cardiac puncture under anesthesia in EDTA-Vacutainer tubes (BD). Serum samples were collected in a similar fashion but in microcentrifuge tubes followed by a 30 minute incubation at room temperature to allow for clotting. Serum was then removed following centrifugation for 5 minutes. Paraffin-embedded blocks, serial section slides, and hematoxylin and eosin staining were prepared according to standard procedures. TUNEL staining was performed using the ApopTag® Peroxidase In Situ Apoptosis Detection Kit (Millipore). For IHC analysis, slides were dewaxed in xylene and hydrated in a decreasing gradient of ethanol. Antigen retrieval was carried out by boiling in 10 mM citric acid (pH 6.0) for 6 min. Samples were blocked with streptavidin and biotin blocking solutions and goat serum (Vector Laboratories). Primary antibodies were incubated overnight at 4° C. in a humidity chamber. Incubation with biotinylated secondary antibody and DAB deposition was carried out according the manufacturer's protocol (Vector Laboratories DAB Substrate Kit for Peroxidase). […] Images were recorded on an Axioskop microscope using QCapture software (QImaging).
# [2] = system: surface TRAIL in a panel of cancer cells; assay: Surface TRAIL by flow cytometry in cancer cell lines; assay type: cell-based, human; conditions: 72 hr, p53-independent
# GBM cell lines = assay: Cell viability assays of GBM cell lines; assay type: cell-based, human; conditions: 72 hr post-treatment, p53-independent
# Protocol: For all flow cytometry analyses, floating and adherent cells were analyzed on a Coulter-Beckman Elite Epics cytometer. […] Cells were gated on forward and side scatter to eliminate debris and dead cells from the analysis. […] Cell viability assays were carried out in 96-well black-walled clear-bottom plates using CellTiter-Glo® (Promega) according to the manufacturer's protocols. Imaging and quantification of these assays were performed on an IVIS imaging system (Xenogen).
# [3] = Pharmacokinetic analysis of TIC10 in plasma
# Protocol: HPLC analysis was performed by absorbance detection at 239 nm on an Agilent 1200 series system (Agilent, Santa Clara, CA) using an Eclipse XDB-C18 column (Agilent) and a 100 μL injection loop. Isocratic elution at 1 mL/minute was carried out in 0.1% trifluoroacetic acid in dH2O. An acetonitrile (ACN) gradient was carried out for elution as 15-20% ACN at 0-5 minutes, 20-23% for 5-12 minutes, 25% for 12-18 minutes. […] For all plasma samples, blood was obtained by terminal cardiac puncture of the left ventricle and collected into EDTA tubes (BD). Samples were centrifuged at 500 g for 10 minutes. Plasma was deproteinated by the adding 30 μL of perchloric acid to 100 μL of samples, vortexed for 15 seconds, centrifuged for 2 minutes, and the supernatant was immediately injected into the HPLC. AUC was normalized to an internal serum peak with a retention time of 8.1 minutes. AUC data versus time was fit with a two-compartment open model with first order elimination from central compartment using the equation AUC=Ae^−αt+Be^−βt where t=time and A and B are the extrapolated concentrations at the initiation of the two phases (distribution and elimination). Half-lives calculated as t1/2α=0.693/α and t1/2β=0.693/β. Other equations used for calculation include CL=dose/AUC0-∞ and Vd=dose/(AUC0-∞Xβ).
# Error bars represent standard error mean of replicates.
# [4] = system: freshly isolated GBM cells; conditions: temozolomide-resistant, previously irradiated, 72 hr
# Protocol: (§1) For all flow cytometry analyses, floating and adherent cells were analyzed on a Coulter-Beckman Elite Epics cytometer. For surface TRAIL experiments, adherent cells were harvested by brief trypsinization, fixed in 4% paraformaldehyde in PBS for 20 min, incubated with an anti-TRAIL antibody for 2 hr (Abeam), washed and incubated with anti-rabbit Alexafluor 488 (Invitrogen) for 30 min, and analyzed. Cells were gated on forward and side scatter to eliminate debris and dead cells from the analysis. Surface TRAIL data is expressed as median fluorescence intensity relative to that of control samples unless indicated as otherwise. For Sub-G1 and cell cycle profile experiments, all cells were pelleted and ethanol fixed followed by staining with propidium iodide (Sigma) in the presence of RNAse. Cell viability assays were carried out in 96-well black-walled clear-bottom plates using CellTiter-Glo® (Promega) according to the manufacturer's protocols. Imaging and quantification of these assays were performed on an IVIS imaging system (Xenogen).
# HFF cells [5] = conditions: 5 μM, 72 hr
# Protocol: as §1
# SW480 xenograft = assay: SW480 subcutaneous xenograft; assay type: in vivo, athymic nu/nu mice; conditions: single dose 30 mg/kg, intraperitoneal or oral delivery
# Protocol: (§4) For subcutaneous xenografts, 4-6 week old female, athymic nu/nu mice (Charles River Laboratories) were inoculated with 1×10^6 cells (2.5×10^6 for T98G) of indicated cell lines in each rear flank as a 200 μL suspension of 1:1 Matrigel (BD):PBS. All intraperitoneal and intravenous injections were given at a total volume of 200 μL. […] Tumors were monitored using digital calipers at indicated time points. All subcutaneous tumors were allowed to establish for 1-4 weeks post-injection until reaching a volume of ˜125 mm^3 before treatment initiation. Relief of tumor burden was monitored for 3 weeks following disappearance of the tumor and confirmed by visual inspection after euthanasia.
# HCT116 xenograft = assay: HCT116 xenograft, single oral dose titration; assay type: in vivo, athymic nu/nu mice; conditions: 25 mg/kg
# Protocol: as §4
# (§5) Error bars indicate standard deviation (s.d.) of replicates. *P<0.05 and **P<0.005 between the indicated condition and control unless otherwise indicated.
# [6] = system: MDA-MB-231 human breast cancer xenografts; assay: MDA-MB-231 subcutaneous xenograft; conditions: single doses, TIC10 i.p., TRAIL i.v.
# Protocol: as §4, §5
# cancer cell lines = assay: Colony formation assays, cancer cell lines; assay type: cell-based, human; conditions: 10 μM, 72 hr
# [7] = Serum chemistry of C57/B6 mice treated weekly for 4 weeks
# Protocol: For CBC/differential and serum chemistry assays, 1 mL of blood was harvested from anesthetized mice by terminal cardiac puncture of the left ventricle. For serum chemistry, 500 μL, was placed into a microfuge tube and allowed to clot for 30 minutes at room temperature followed by centrifugation. Serum was removed, centrifuged again to remove any further clots, and serum was submitted for analysis. For CBC/differentials, 500 μL of blood was collected into EDTA tubes and analyzed.
# HCT116 p53−/− xenograft = assay: HCT116 p53−/− subcutaneous xenograft; assay type: in vivo, athymic nu/nu mice; conditions: 3 doses on day 0, 3 and 6, TIC10 i.p.
# Protocol: as §4, §5
# [8] = Blood-brain barrier crossing; conditions: in vivo
# HFF cells [9] = assay: Colony formation parallel experiment, HFF cells
# Protocol: Indicated cell lines were plated at 500 cells per well and treated the following day in fresh complete media after adherence. At 3 days post-treatment, the media was replaced with drug-free media and cells were propagated for 10 days with fresh media given once every 3 days. At the end of the 10 day period, cells were washed in PBS, fixed with methanol, and stained with Coomassie blue, rinsed, and dried for quantification.
# Error bars indicate standard deviation (s.d.) of replicates. […] Error bars indicate standard deviation (s.d.) of replicates.
# [10] = system: freshly resected colon tumor cells from a human patient; conditions: TIC10 0.6-20 μM
# Protocol: as §1
# (§2) Error bars indicate s.d. of replicates.
# TRAIL [11] = system: TRAIL
# Protocol: (§3) Tissue analyses. […] Serum was then removed following centrifugation for 5 minutes.
# ELISA for TRAIL was carried out using the Quantikine® TRAIL/TNFSF10 kit according to the manufacturer's protocol (DTRL00, R&D systems, Minneapolis, MN). […] Absorbances were measured with a DTX 880 plate reader (Beckman Coulter).
# as §2
# [12] = system: intracecal HCT116 p53−/− tumors; conditions: multi-dose regimen, once a week
# Protocol: Intracecal implantation was performed as described in Cespedes, M. V., et al., Am J Pathol, 2007, 170(3): p. 1077-1085.
# FIG. 37 is a graph showing percent of cohorts with implanted with intracecal HCT116 p53^−/− tumors with evident tumors at the primary and distal sites at endpoint (n=5).
# FIG. 38 is a graph showing body weight of mice at endpoint. Error bars indicate s.d. of replicates.
# [13] = system: subcutaneous T98G xenografts; assay: T98G subcutaneous xenograft; assay type: in vivo, athymic nu/nu mice; conditions: single oral dose, 30 mg/kg
# Protocol: TIC10 was tested in preclinical models of GBM as a monoagent and in combination with bevacizumab.
# [14] = system: TRAIL mRNA in HCT116 p53−/− cells; assay: RT-qPCR analysis of TRAIL mRNA levels; assay type: cell-based, human; conditions: 48 hr
# Protocol: Total RNA was extracted using RNeasy Minikit (Qiagen) by following the manufacturer's instructions. cDNA was generated using SuperScript II (Invitrogen) with 1 μg of RNA and oligodT. […] PCR amplification was performed with the Applied Biosystems 7900HT Fast Real-time Detection System. Samples were standardized to 10 ng/μl and twenty ng of cDNA per sample was then utilized as a template for real-time PCR using a SYBR Green Master Mix (Qiagen Corp, USA). Samples were normalized to GAPDH used under identical conditions. Quantitation used the 2ΔΔCt method of crossing thresholds described in Livak et al., 2001, Methods. […] Reactions were performed in 384 well optical plates in a 7900HT instrument (Applied Biosystems), with 10 ul reaction volumes. Data analysis used the ABI PRISM 7900 Sequence Detection System 2.2 software. To exclude the possibility of genomic DNA contamination, control PCR reactions with no cDNA template and No-RT control samples were also performed for each gene-specific primer set. Quadruplicates of each PCR reaction were performed and the resultant data was averaged.
# [15] = system: SF767 intracranial tumors; assay: Overall survival of mice harboring SF767 intracranial tumors; assay type: in vivo, athymic nude mice; conditions: for Median Survival: TIC10 25 mg/kg oral, bevacizumab 10 mg/kg i.v.
# Protocol: For intracranial xenografts, anesthetized athymic nude mice were implanted with 2×10^5 SF767 cells in a 25 μL suspension of serum- and antibiotic-free RPMI. The site of injection was a burr hole created 1 mm lateral to the midline of the skull and 1 mm anterior to the coronal suture. The injection was gradually administered over 5 minutes with a Hamilton syringe and the burr hole was sealed using bone wax. Tumor take was assessed by bioluminescent imaging 2 weeks following implantation. Bioluminescent imaging of tumors was carried out on an IVIS imaging system as described in Wang et al., 2003, PNAS 100:15095-15100.
# HCT116 p53−/− cells = assay: Sub-G1 / cell cycle profile, HCT116 p53−/− cells; assay type: cell-based, human; conditions: 5 μM, 72 hr
# Protocol: as §1
# [16] = system: pAkt and pERK in HCT116 p53−/− cells; assay: Western blot analysis of pAkt and pERK; assay type: cell-based, human; conditions: TIC10 2.5, 5, 10 μM, 72 hr, dose-dependent
# Protocol: Western blot analysis was conducted as described in Wang, W. et al., PNAS 103, 11003-11008, 2006, using NuPAGE 4-12% Bis-Tris and visualized using Supersignal West Femto (Thermo Scientific) and X-ray film. Nuclear and cytoplasmic extracts were prepared using a cytoplasmic lysis buffer (10 mM HEPES, 10 mM KCl, and 2 mM MgCl2, 1 mM DTT) followed by a nuclear lysis buffer (20 mM HEPES, 420 mM NaCl, 1.5 mM MgCl2, 250 μM EDTA, 25% glycerol). For all lysis buffers, fresh protease inhibitor (Roche) and 1 mM sodium orthovanadate was added immediately prior to use.
# TIC10-induced changes in regulators of Foxo3a such as IKK, Akt, and ERK were determined.
# FIG. 61 is a graph showing time course of protein expression levels of TIC10-induced effects determined by densitometry of Western blots from replicate experiments as in FIG. 60 (n=3). Data is express relative to the control sample for each time point and normalized to Ran. TRAIL was quantified by flow cytometry as a parallel experiment (n=3).
# HCT116 cells = assay: Cell viability in HCT116 cells after 1 hr pre-incubation of agent at indicated temperatures; assay type: cell-based, human; conditions: TIC10 5 μM, 1 hr pre-incubation at indicated temperatures, 72 hr
# TRAIL [17] = conditions: TIC10 100 mg/kg i.v.
# Protocol: as §3
# [18] = system: Eμ-Myc transgenic mice that spontaneously develop lymphoma; conditions: weekly oral TIC10 25 mg/kg during weeks 9-12 of age
# Protocol: Near-infrared imaging of mice was carried out on a Pearl Impulse imaging system (LI-COR) following tail-vein injection of AngioSense® 680 (VisEn Medical, Woburn, MA) according to the manufacturer's protocols. 6 week old Eμ-myc mice were obtained from The Jackson Laboratory (B6.Cg-Tg(IghMyc)22Bri/J).
# P value determined by log-rank test. For relative tumor volume plots, tumor size is expressed relative to the tumor size on day 0, which is defined as the day of treatment initiation.
# DLD-1 xenografts = assay: DLD-1 subcutaneous xenograft; conditions: single dose, 1 week post-treatment, TIC10 i.p., TRAIL i.v.
# Protocol: as §4
# [19] = system: human TRAIL gene promoter in HCT116 Bax−/− cells; conditions: first 504 base pairs of the TRAIL promoter
# Protocol: Bioluminescent high-throughput screening using the NCI diversity set II was carried out in HCT116 Bax^−/− cells that were stably cotransfected to express a firefly luciferase construct under transcriptional control of the first 504 base pairs of the TRAIL promoter upstream of the start of transcription of the human TRAIL gene. Compounds were tested at a working concentration of 20 nM, 200 nM, 500 nM, and 1 μM with bioluminescent assessment of transcriptional activity at 12, 24, 36, and 48 hours post-treatment.
# [20] = TRAIL protein / recombinant TRAIL, cited from earlier work
# [21] = 25 mg/kg intravenous, plasma, two-compartment model
# [22] = female, C57/B6, mouse, in vivo, iv, 25 mg/kg
# [23] = serum, TIC10 25 mg/kg oral weekly for 4 weeks
# [24] = tumor-free mice, TIC10 100 mg/kg i.v.
# [25] = single dose at 2 weeks post-implantation
compound,measurement,setting,value
Cc1ccccc1CN1C(=O)C2=C(CCN(Cc3ccccc3)C2)N2CCN=C12 [TIC10],effects on body weight or liver histology,[1],no adverse effects on body weight or liver histology
same,TRAIL protein localized to the cell surface,[2],dose-dependent increase
same,GI50,GBM cell lines,low micromolar range
same,t1/2α,"[3]; 25 mg/kg intravenous, plasma",2.82 min
same,t1/2β,"[3]; 25 mg/kg intravenous, plasma",385 min
same,α,[3]; [21],14.9 h⁻¹
same,β,[3]; [21],0.108 h⁻¹
same,AUC(0-inf),[3]; [22],63.9 µM·h
same,Cmax,[3]; [22],44.2 µM
same,Tmax,[3]; [22],1.2 min
same,Vd,[3]; [22],9.39 L/kg
same,clearance,[3]; [22],16.8 mL/min/kg
same,cytotoxicity in freshly isolated GBM cells,[4],cytotoxic effects
same,cell cycle profile of normal fibroblasts,HFF cells [5],without altering the cell cycle profiles
same,effect on tumor,SW480 xenograft,sustained regression
same,effect on tumor,HCT116 xenograft,sustained anti-tumor efficacy
same,effect on tumor,[6],regression
same,clonogenic survival,cancer cell lines,decreased the clonogenic survival
same,changes in a panel of serum chemistry markers,"[7]; oral TIC10 25 mg/kg weekly for 4 weeks, immuno-competent mice",did not cause any changes
same,Albumin,[7]; [23],2.9 g/dL
same,Alkaline phosphate,[7]; [23],112 ± 12 U/L
same,Blood urea nitrogen,[7]; [23],33.75 ± 7.3 mg/dL
same,Chloride,[7]; [23],104 mM
same,Creatinine,[7]; [23],0.15 ± .06 mg/dL
same,Lactate dehyrogenase,[7]; [23],287.5 ± 125 U/L
same,Potassium,[7]; [23],7.325 ± 3.2 mM
same,Sodium,[7]; [23],154.5 ± 5.2 mM
same,Total Protein,[7]; [23],4.97 ± .61 g/dL
same,Total bilirubin,[7]; [23],2.725 ± 2.4 mg/dL
same,effect on tumor,HCT116 p53−/− xenograft,tumor regression
same,blood-brain barrier crossing,[8],crosses the blood-brain barrier
same,effect on normal fibroblasts in colony formation experiment,HFF cells [9],sparing normal fibroblasts
same,cytotoxicity in primary colon cancer cells,[10],potent cytotoxic effects
same,duration of sustained serum levels of secreted TRAIL,TRAIL [11]; after a single dose of TIC10,3 to 4 days
same,duration of elevated serum levels of TRAIL,TRAIL [11]; [24],greater than 72 hours
same,time at which serum TRAIL induced by TIC10 was detected following administration,TRAIL [11]; [24],2 h
same,tolerability / body weight at endpoint,[12],well tolerated
same,effect on tumor,[13],sustained regression
same,TRAIL mRNA levels,[14],dose-dependent increase
same,Median Survival,[15]; [25],74 days
same,change in overall survival,"[15]; single dose, intracranial xenograft of human GBM",doubled
same,ΔMedian Survival,"[15]; versus control cohort, single dose at 2 weeks post-implantation",46 days
same,sub-G1 DNA content,HCT116 p53−/− cells,induced sub-G1 DNA content
same,pAkt and pERK levels,[16],abolished
same,thermal stability of cytotoxic activity,HCT116 cells,thermally stable
same,TRAIL protein in normal tissues (IHC),TRAIL [17],"upregulated at the protein level in the brain, kidney, and spleen"
same,toxicity in normal tissues by histology and TUNEL staining,TRAIL [17],without apparent toxicity
same,prolongation of survival,[18],4 weeks
same,effect on tumor,DLD-1 xenografts,tumor stasis
same,TRAIL promoter luciferase reporter activity,[19],induced TRAIL promoter-dependent transcriptional activity
bevacizumab [reference compound],Median Survival,[15]; [25],70 days
"TRAIL: Purified, recombinant TRAIL (TNF-related apoptosis-inducing ligand; Apo2L)",serum half-life,[20],20 to 30 min
same,serum half-life,[20]; listed as recombinant TRAIL,~30 min
same,effect on tumor,[6],progressed
same,effect on tumor,DLD-1 xenografts,progressed
